In patent US11491157B2, “Cycloalkyl substituted pyrazolopyrimidines having activity against RSV” (priority 2018, dated 2022):
pEC50: −log10 of the molar value. Where a name gives a salt, the structure may show the parent alone.

Experiments:
[1] = system: rgRSV224 virus; test: Antiviral activity: rgRSV224 (GFP) replication in HeLa cells; details: human respiratory syncytial virus, 72 h, read-out: RSV HELA EC50
Protocol: (§1) Black 384-well clear-bottom microtiter plates (Corning, Amsterdam, The Netherlands) were filled via acoustic drop ejection using the echo liquid handler (Labcyte, Sunnyvale, Calif.). 200 nL of compound stock solutions (100% DMSO) were transferred to the assay plates. 9 serial 4-fold dilutions of compound were made, creating per quadrant the same compound concentration. The assay was initiated by adding 10 μL of culture medium to each well (RPMI medium without phenol red, 10% FBS-heat inactivated, 0.04% gentamycin (50 mg/mL). All addition steps are done by using a multidrop dispenser (Thermo Scientific, Erembodegem, Belgium). Next, rgRSV224 virus (MOI=1) diluted in culture medium was added to the plates. rgRSV224 virus is an engineered virus that includes an additional GFP gene (Hallak L K, Spillmann D, Collins P L, Peeples M E. Glycosaminoglycan sulfation requirements for respiratory syncytial virus infection; Journal of virology (2000), 74(22), 10508-13) and was in-licensed from the NIH (Bethesda, Md., USA). Finally, 20 μL of a HeLa cell suspension (3,000 cells/well) were plated. Medium, virus- and mock-infected controls were included in each test. The wells contain 0.05% DMSO per volume. Cells were incubated at 37° C. in a 5% CO2 atmosphere. Three days post-virus exposure, viral replication was quantified by measuring GFP expression in the cells by an in house developed MSM laser microscope (Tibotec, Beerse, Belgium). The EC50 was defined as the 50% inhibitory concentration for GFP expression. In parallel, compounds were incubated for three days in a set of white 384-well microtiter plates (Corning) and the cytotoxicity of compounds in HeLa cells was determined by measuring the ATP content of the cells using the ATPlite kit (Perkin Elmer, Zaventem, Belgium) according to the manufacturer's instructions. The CC50 was defined as the 50% concentration for cytotoxicity.

[2] = in vitro; details: human
Protocol: as §1

Structure (SMILES)	pEC50 [1]	CC50 at 3 days [2]
C[C@@H]1c2ccccc2CCN1C(=O)c1cc(C2CC2)n2nc(-c3cnc(C4C[C@H]4C(N)=O)cc3F)cc2n1 (relative stereo) [Compound 49, Trans-2-(5-{7-Cyclopropyl-5-[(1R)-1-methyl-1,2,3,4-tetrahydroisoquinoline-2-carbonyl]pyrazolo[1,5-a]pyrimidin-2-yl}-4-fluoropyridin-2-yl)cyclopropane-1-carboxamide]	6.82	10800 nM
C[C@@H]1c2ccccc2CCN1C(=O)c1cc(C2CC2)n2nc(-c3cnc(C4C[C@H]4C(=O)NS(C)(=O)=O)cc3F)cc2n1 (relative stereo) [Compound 50, Trans-2-(5-{7-Cyclopropyl-5-[(1R)-1-methyl-1,2,3,4-tetrahydroisoquinoline-2-carbonyl]pyrazolo[1,5-a]pyrimidin-2-yl}-4-fluoropyridin-2-yl)-N-methanesulfonylcyclopropane-1-carboxamide]	6.41	53300 nM
C[C@@H]1c2ccccc2CCN1C(=O)c1cc(C2CC2)n2nc(-c3ccc(C4C[C@H]4C(N)=O)nc3F)cc2n1 (relative stereo) [Compound 51, Trans-2-(5-{7-Cyclopropyl-5-[(1R)-1-methyl-1,2,3,4-tetrahydroisoquinoline-2-carbonyl]pyrazolo[1,5-a]pyrimidin-2-yl}-6-fluoropyridin-2-yl)cyclopropane-1-carboxamide]	7.33	25900 nM
C[C@@H]1c2ccccc2CCN1C(=O)c1cc(C2CC2)n2nc(-c3ccc(C4C[C@H]4C(=O)NS(C)(=O)=O)nc3F)cc2n1 (relative stereo) [Compound 52, Trans-2-(5-{7-Cyclopropyl-5-[(1R)-1-methyl-1,2,3,4-tetrahydroisoquinoline-2-carbonyl]pyrazolo[1,5-a]pyrimidin-2-yl}-6-fluoropyridin-2-yl)-N-methanesulfonylcyclopropane-1-carboxamide]	6.93	65300 nM
C[C@@H]1c2ccccc2CCN1C(=O)c1cc(-c2ccccc2)n2nc(-c3ccc([C@H]4C[C@@H]4C(=O)NS(C)(=O)=O)cc3F)cc2n1 (single isomer, unassigned) [Compound 31, (1*S,2*S)-2-(3-Fluoro-4-{5-[(1R)-1-methyl-1,2,3,4-tetrahydroisoquinoline-2-carbonyl]-7-phenylpyrazolo[1,5-a]pyrimidin-2-yl}phenyl)-N-methanesulfonyl-cyclopropane-1-carboxamide; propan-2-amine salt]	7.40	35200 nM
C[C@@H]1c2ccccc2CCN1C(=O)c1cc(-c2ccccc2)n2nc(-c3ccc([C@@H]4C[C@H]4C(=O)NS(C)(=O)=O)cc3F)cc2n1 (single isomer, unassigned) [Compound 32, (1*R,2*R)-2-(3-Fluoro-4-{5-[(1R)-1-methyl-1,2,3,4-tetrahydroisoquinoline-2-carbonyl]-7-phenylpyrazolo[1,5-a]pyrimidin-2-yl}phenyl)-N-methanesulfonyl-cyclopropane-1-carboxamide; propan-2-amine salt]	7.21	37300 nM
C[C@@H]1c2ccccc2CCN1C(=O)c1cc(C2CC2)n2nc(-c3ccc([C@H]4C[C@@H]4CO)cc3F)cc2n1 [Compound 1, [(1S,2S)-2-(4-{7-Cyclopropyl-5-[(1R)-1-methyl-1,2,3,4-tetrahydroisoquinoline-2-carbonyl]pyrazolo[1,5-a]pyrimidin-2-yl}-3-fluorophenyl)cyclopropyl]methanol]	7.21	41800 nM
C[C@@H]1c2ccccc2CCN1C(=O)c1cc(C2CC2)n2nc(-c3ccc([C@@H]4C[C@H]4c4cc(=O)[nH]o4)cc3F)cc2n1 [Compound 2, 5-[(1R,2R)-2-(4-{7-Cyclopropyl-5-[(1R)-1-methyl-1,2,3,4-tetrahydroisoquinoline-2-carbonyl]pyrazolo[1,5-a]pyrimidin-2-yl}-3-fluorophenyl)cyclopropyl]-2,3-dihydro-1,2-oxazol-3-one]	7.08	42500 nM
C[C@@H]1c2ccccc2CCN1C(=O)c1cc(C2CC2)n2nc(-c3ccc([C@H]4C[C@@H]4C#N)cc3F)cc2n1 [Compound 3, (1S,2S)-2-(4-{7-Cyclopropyl-5-[(1R)-1-methyl-1,2,3,4-tetrahydroisoquinoline-2-carbonyl]pyrazolo[1,5-a]pyrimidin-2-yl}-3-fluorophenyl)cyclopropane-1-carbonitrile]	6.50	> 100000 nM
C[C@@H]1c2ccccc2CCN1C(=O)c1cc(C2CC2)n2nc(-c3ccc([C@H]4C[C@@H]4c4noc(=O)[nH]4)cc3F)cc2n1 [Compound 5, 3-[(1S,2S)-2-(4-{7-Cyclopropyl-5-[(1R)-1-methyl-1,2,3,4-tetrahydroisoquinoline-2-carbonyl]pyrazolo[1,5-a]pyrimidin-2-yl}-3-fluorophenyl)cyclopropyl]-4,5-dihydro-1,2,4-oxadiazol-5-one]	7.01	41800 nM
C[C@@H]1c2ccccc2CCN1C(=O)c1cc(C2CC2)n2nc(-c3ccc([C@H]4C[C@@H]4C(=O)NC#N)cc3F)cc2n1 [Compound 13, (1S,2S)—N-Cyano-2-(4-{7-cyclopropyl-5-[(1R)-1-methyl-1,2,3,4-tetrahydroisoquinoline-2-carbonyl]pyrazolo[1,5-a]pyrimidin-2-yl}-3-fluorophenyl)cyclopropane-1-carboxamide]	6.14	49800 nM
CCNC(=O)[C@H]1C[C@@H]1c1ccc(-c2cc3nc(C(=O)N4CCc5ccccc5[C@H]4C)cc(C4CC4)n3n2)c(F)c1 [Compound 14, (1S,2S)-2-(4-{7-Cyclopropyl-5-[(1R)-1-methyl-1,2,3,4-tetrahydroisoquinoline-2-carbonyl]pyrazolo[1,5-a]pyrimidin-2-yl}-3-fluorophenyl)-N-ethylcyclopropane-1-carboxamide]	6.77	> 50000 nM
C#CCNC(=O)[C@H]1C[C@@H]1c1ccc(-c2cc3nc(C(=O)N4CCc5ccccc5[C@H]4C)cc(C4CC4)n3n2)c(F)c1 [Compound 17, (1S,2S)-2-(4-{7-Cyclopropyl-5-[(1R)-1-methyl-1,2,3,4-tetrahydroisoquinoline-2-carbonyl]-pyrazolo[1,5-a]pyrimidin-2-yl}-3-fluorophenyl)-N-(prop-2-yn-1-yl)cyclopropane-1-carboxamide]	6.74	> 100000 nM
C[C@@H]1c2ccccc2CCN1C(=O)c1cc(C2CC2)n2nc(-c3ccc([C@H]4C[C@@H]4C(=O)NC4(C)CC4)cc3F)cc2n1 [Compound 20, (1S,2S)-2-(4-{7-Cyclopropyl-5-[(1R)-1-methyl-1,2,3,4-tetrahydroisoquinoline-2-carbonyl]-pyrazolo[1,5-a]pyrimidin-2-yl}-3-fluorophenyl)-N-(1-methylcyclopropyl)cyclopropane-1-carboxamide]	6.54	> 10000 nM
C[C@@H]1c2ccccc2CCN1C(=O)c1cc(C2CC2)n2nc(-c3ccc([C@H]4C[C@@H]4C(=O)NCCO)cc3F)cc2n1 [Compound 21, (1S,2S)-2-(4-{7-Cyclopropyl-5-[(1R)-1-methyl-1,2,3,4-tetrahydroisoquinoline-2-carbonyl]-pyrazolo[1,5-a]pyrimidin-2-yl}-3-fluorophenyl)-N-(2-hydroxyethyl)-cyclopropane-1-carboxamide]	7.21	> 100000 nM
C[C@@H]1c2ccccc2CCN1C(=O)c1cc(C2CC2)n2nc(-c3ccc([C@H]4C[C@@H]4C(=O)N(C)C)cc3F)cc2n1 [Compound 22, (1S,2S)-2-(4-{7-Cyclopropyl-5-[(1R)-1-methyl-1,2,3,4-tetrahydroisoquinoline-2-carbonyl]-pyrazolo[1,5-a]pyrimidin-2-yl}-3-fluorophenyl)-N,N-dimethylcyclopropane-1-carboxamide]	6.37	51800 nM
C[C@@H]1c2ccccc2CCN1C(=O)c1cc(C2CC2)n2nc(-c3ccc([C@H]4C[C@@H]4C(=O)N4CCCC4)cc3F)cc2n1 [Compound 23, (1R)-2-(7-Cyclopropyl-2-{2-fluoro-4-[(1S,2S)-2-(pyrrolidine-1-carbonyl)cyclopropyl]-phenyl}pyrazolo[1,5-a]pyrimidine-5-carbonyl)-1-methyl-1,2,3,4-tetrahydroisoquinoline]	6.37	16900 nM
C[C@@H]1c2ccccc2CCN1C(=O)c1cc(C2CC2)n2nc(-c3ccc([C@H]4C[C@@H]4C(=O)NS(=O)(=O)C(F)(F)F)cc3F)cc2n1 [Compound 29, (1S,2S)-2-(4-{7-Cyclopropyl-5-[(1R)-1-methyl-1,2,3,4-tetrahydroisoquinoline-2-carbonyl]pyrazolo[1,5-a]pyrimidin-2-yl}-3-fluorophenyl)-N-trifluoromethane-sulfonylcyclopropane-1-carboxamide amine salt]	5.63	> 100000 nM
COC(=O)N[C@H]1C[C@@H]1c1ccc(-c2cc3nc(C(=O)N4CCc5ccccc5[C@H]4C)cc(C4CC4)n3n2)c(F)c1 [Compound 33, Methyl N-[(1S,2R)-2-(4-{7-cyclopropyl-5-[(1R)-1-methyl-1,2,3,4-tetrahydroisoquinoline-2-carbonyl]pyrazolo[1,5-a]pyrimidin-2-yl}-3-fluorophenyl)cyclopropyl]carbamate]	6.81	> 100000 nM
C[C@@H]1c2ccccc2CCN1C(=O)c1cc(C2CC2)n2nc(-c3ccc([C@H]4C[C@@H]4NC(=O)C4CC4)cc3F)cc2n1 [Compound 35, N-[(1S,2R)-2-(4-{7-Cyclopropyl-5-[(1R)-1-methyl-1,2,3,4-tetrahydroisoquinoline-2-carbonyl]pyrazolo[1,5-a]pyrimidin-2-yl}-3-fluorophenyl)cyclopropyl]cyclopropane-carboxamide]	7.24	> 100000 nM
C[C@@H]1c2ccccc2CCN1C(=O)c1cc(C2CC2)n2nc(-c3ccc([C@H]4C[C@@H]4NS(C)(=O)=O)cc3F)cc2n1 [Compound 36, N-[(1S,2R)-2-(4-{7-Cyclopropyl-5-[(1R)-1-methyl-1,2,3,4-tetrahydroisoquinoline-2-carbonyl]pyrazolo[1,5-a]pyrimidin-2-yl}-3-fluorophenyl)cyclopropyl]methanesulfonamide]	6.96	> 100000 nM
